Reference: patent US20250066386A1, “INHIBITORS OF KRAS” (BIOMEA FUSION, INC., priority 2022, published 2025)
Like-named read-outs stand apart in the source and are kept apart here.

System: human KRAS G12C mutated cell line MIA PaCa-2
Assay: KRas G12C in vitro inhibitory activity: cell proliferation, CellTiter-Glo
Format: cell-based
Description: The present example evaluates the ability of compounds provided herein to inhibit proliferation of KRAS mutant cells.
The inhibitory effect on cell proliferation was investigated in the human KRAS G12C mutated cell line MIA PaCa-2 (Yunis et al., 1977, Int. J. Cancer 19(1):128-135; ATCC catalog no. CRL-1420). Cells were maintained in RPMI-1640 medium (ThermoFisher catalog no. 61870036) supplemented with 10% of Heat Inactivated FBS (ThermoFisher catalog no. A31605) and 1% Pen-Strep (ThermoFisher catalog no. 10378016) and cultured at 37° C. in a humidified incubator with 5% CO2. Cells were grown by adhering to culture flasks, and maintained at 70%-80% confluency.
ATP is present in all metabolically active cells and is considered as a marker for viable cells. The number of metabolically active live cells in culture was determined using the CellTiter-Glo kit (Promega catalog no. G7572), an ATP monitoring system based on the production of luminescence by the reaction of ATP with added UltraGlo® recombinant luciferase (Kawano et al., 2016, PLOS One, 8; 11(7):e0158888), according to the supplier's experimental recommendations. The cell proliferation assay was based on a 96 well plate format.
Test compounds were dissolved at 10 mM in DMSO (Sigma catalog no. D8418; purity >99.9%) and stored at −20° C. Eight concentrations of test compound were assessed in duplicate in an individual test occasion in parallel in the selected cell lines. MRTX-849 and AMG-510 were used as reference compounds and tested in duplicate at eight concentrations. 100% of proliferation is represented by the untreated cells (0.2% DMSO).
On the day of the experiment (TO), cells were detached with TrypLE (ThermoFisher catalog no. 12604054), quantified using the cell viability analyser NucleoCounter (Chemometec NC-200) and resuspended in fresh medium at a cell density of about 5000 cells per 200 μL medium. 200 μL of cell suspension were added to each well of a 96 well plate.
Two hours after seeding cells, compounds were added at desired concentrations using a D300e compound dispenser (Life Sciences Tecan D300) with shaking after each compound addition. Assay plates were incubated at 37° C. in a humidified incubator with 5% CO2.
(§1) To measure 3 day inhibition of cell proliferation on day 3 (T3), assay plates were equilibrated to room temperature for approximately 15 min, and the Promega CellTiterGlo® reagent was added at 40 μL/well. Contents were mixed for 5 min on an orbital shaker to induce cell lysis, and then incubated at room temperature for an additional 10 min in the dark to stabilize the luminescent signal. Luminescence was read using a GloMax GM300 plate reader (Promega) using the luminescence for 96 well plate standard protocol.
as §1, with “measure 7” for “measure 3”, “(T3), 150 μL of growth media was removed from each well of the assay plates and replaced with 150 uL fresh growth media, and fresh compounds added using a D300e compound dispenser (Life Sciences Tecan D300) at desired concentrations with shaking between each compound addition. Assay plates were incubated at 37° C. in a humidified incubator with 5% CO2. On day 7 (T7)” for “(T3),”
Data was expressed as % of inhibition compared to the 0.2% DMSO negative no drug control, and is calculated as follows: % inhibition=100−[(RLU sample)×100/(RLU average controls*)], where * indicates the average for 0.2% DMSO.
Results were analyzed by GraphPad (Prism) and IC50 values were calculated by non-linear regression using four parameter-logistic equation. […]

[1] = Homo sapiens, MIA PaCa-2, 72 h, 3 day inhibition of cell proliferation, CellTiter-Glo luminescence, read-out: MIA PaCa-2 Day 3 IC50

| SMILES | IC50 (7 day inhibition of cell proliferation, medium and compound renewed on day 3, CellTiter-Glo luminescence, read-out: MIA PaCa-2 Day 7 IC50) [µM] | IC50 [1] [µM] | IC50 (Homo sapiens, MIA PaCa-2, 7 day inhibition of cell proliferation, medium and compound renewed on day 3, CellTiter-Glo luminescence, read-out: MIA PaCa-2 Day 7 IC50) [µM] |
| --- | --- | --- | --- |
| CCn1c(-c2cccnc2[C@H](C)OC)c2c3cc(ccc31)-c1cccc(c1)C[C@H](NC(=O)[C@H](C(C)C)N(C)C(=O)[C@H]1CCN(C/C=C/C(=O)N(C)C)C1)C(=O)N1CCC[C@H](N1)C(=O)OCC(C)(C)C2 (atropisomer, axis not shown) [Compound 101, (3S)-1-((E)-4-(dimethylamino)-4-oxobut-2-en-1-yl)-N-((2S)-1-(((6^3S,4S)-1^1-ethyl-1^2-(2-((S)-1-methoxyethyl)pyridin-3-yl)-10,10-dimethyl-5,7-dioxo-6^1,6^2,6^3,6^4,6^5,6^6-hexahydro-1^1H-8-oxa-1(5,3)-indola-6(1,3)-pyridazina-2(1,3)-benzenacycloundecaphane-4-yl)amino)-3-methyl-1-oxobutan-2-yl)-N-methylpyrrolidine-3-carboxamide] |  | 0.01 to 0.1 | 0.01 to 0.1 |
| CCn1c(-c2cccnc2[C@H](C)OC)c2c3cc(ccc31)-c1cccc(c1)C[C@H](NC(=O)[C@H](C(C)C)N(C)C(=O)[C@H]1CCN(C(=O)C#CCN(C)C)C1)C(=O)N1CC[C@@H](C1)C(=O)OCC(C)(C)C2 (atropisomer, axis not shown) [Compound 102, (3S)-1-(4-(dimethylamino)but-2-ynoyl)-N-((2S)-1-(((6^3S,4S)-1^1-ethyl-1^2-(2-((S)-1-methoxyethyl)pyridin-3-yl)-10,10-dimethyl-5,7-dioxo-1^1H-8-oxa-1(5,3)-indola-6(1,3)-pyrrolidina-2(1,3)-benzenacycloundecaphane-4-yl)amino)-3-methyl-1-oxobutan-2-yl)-N-methylpyrrolidine-3-carboxamide] |  | > 0.1 |  |
| CCn1c(-c2cccnc2[C@H](C)OC)c2c3cc(ccc31)-c1cccc(c1)C[C@H](NC(=O)[C@H](C(C)C)N(C)C(=O)C1CCN(CC#CC(=O)N(C)C)CC1)C(=O)N1CCC[C@H](N1)C(=O)OCC(C)(C)C2 (atropisomer, axis not shown) [Compound 109, 1-(4-(dimethylamino)-4-oxobut-2-yn-1-yl)-N-((2S)-1-(((6^3S,4S)-1^1-ethyl-1^2-(2-((S)-1-methoxyethyl)pyridin-3-yl)-10,10-dimethyl-5,7-dioxo-6^1,6^2,6^3,6^4,6^5,6^6-hexahydro-1^1H-8-oxa-1(5,3)-indola-6(1,3)-pyridazina-2(1,3)-benzenacycloundecaphane-4-yl)amino)-3-methyl-1-oxobutan-2-yl)-N-methylpiperidine-4-carboxamide] |  | 0.001 to 0.01 |  |
| CCn1c(-c2cccnc2[C@H](C)OC)c2c3cc(ccc31)-c1cccc(c1)C[C@H](NC(=O)[C@H](C(C)C)N(C)C(=O)[C@H]1CCN(C/C=C/C(=O)N3CC(F)C3)C1)C(=O)N1CCC[C@H](N1)C(=O)OCC(C)(C)C2 (atropisomer, axis not shown) [Compound 110, (3S)—N-((2S)-1-(((6^3S,4S)-1^1-ethyl-1^2-(2-((S)-1-methoxyethyl)pyridin-3-yl)-10,10-dimethyl-5,7-dioxo-6^1,6^2,6^3,6^4,6^5,6^6-hexahydro-1^1H-8-oxa-1(5,3)-indola-6(1,3)-pyridazina-2(1,3)-benzenacycloundecaphane-4-yl)amino)-3-methyl-1-oxobutan-2-yl)-1-((E)-4-(3-fluoroazetidin-1-yl)-4-oxobut-2-en-1-yl)-N-methylpyrrolidine-3-carboxamide] |  | < 0.001 |  |
| CCn1c(-c2cccnc2[C@H](C)OC)c2c3cc(ccc31)-c1csc(n1)C[C@H](NC(=O)[C@H](C(C)C)N(C)C(=O)[C@H]1CCN(C/C=C/C(=O)N(C)C)C1)C(=O)N1CCC[C@H](N1)C(=O)OCC(C)(C)C2 (atropisomer, axis not shown) [Compound 111, (3S)-1-((E)-4-(dimethylamino)-4-oxobut-2-en-1-yl)-N-((2S)-1-(((6^3S,4S,Z)-1^1-ethyl-1^2-(2-((S)-1-methoxyethyl)pyridin-3-yl)-10,10-dimethyl-5,7-dioxo-6^1,6^2,6^3,6^4,6^5,6^6-hexahydro-1^1H-8-oxa-2(4,2)-thiazola-1(5,3)-indola-6(1,3)-pyridazinacycloundecaphane-4-yl)amino)-3-methyl-1-oxobutan-2-yl)-N-methylpyrrolidine-3-carboxamide] |  | 0.01 to 0.1 |  |

The remaining lines, values ahead:

| IC50 (7 day inhibition of cell proliferation, medium and compound renewed on day 3, CellTiter-Glo luminescence, read-out: MIA PaCa-2 Day 7 IC50) [µM] | IC50 [1] [µM] | IC50 (Homo sapiens, MIA PaCa-2, 7 day inhibition of cell proliferation, medium and compound renewed on day 3, CellTiter-Glo luminescence, read-out: MIA PaCa-2 Day 7 IC50) [µM] | SMILES |
| --- | --- | --- | --- |
| > 0.1 | > 0.1 |  | CCn1c(-c2cccnc2[C@H](C)OC)c2c3cc(ccc31)-c1cccc(c1)C[C@H](NC(=O)[C@H](C(C)C)N(C)C(=O)[C@H]1CCN(C(=O)C#CCN3CCOCC3)C1)C(=O)N1CCC[C@H](C1)C(=O)OCC(C)(C)C2 (atropisomer, axis not shown) [Compound 2, (3S)—N-((2S)-1-(((6^3R,4S)-1^1-ethyl-1^2-(2-((S)-1-methoxyethyl)pyridin-3-yl)-10,10-dimethyl-5,7-dioxo-1^1H-8-oxa-1(5,3)-indola-6(1,3)-piperidina-2(1,3)-benzenacycloundecaphane-4-yl)amino)-3-methyl-1-oxobutan-2-yl)-N-methyl-1-(4-morpholinobut-2-ynoyl)pyrrolidine-3-carboxamide] |
|  | > 0.1 |  | CCn1c(-c2cccnc2[C@H](C)OC)c2c3cc(ccc31)-c1cccc(c1)C[C@H](NC(=O)[C@H](C(C)C)N(C)C(=O)[C@H]1CCN(C(=O)C#CCN(C)C)C1)C(=O)N1CC[C@H](C1)C(=O)OCC(C)(C)C2 (atropisomer, axis not shown) [Compound 103, (3S)-1-(4-(dimethylamino)but-2-ynoyl)-N-((2S)-1-(((6^3R,4S)-1^1-ethyl-1^2-(2-((S)-1-methoxyethyl)pyridin-3-yl)-10,10-dimethyl-5,7-dioxo-1^1H-8-oxa-1(5,3)-indola-6(1,3)-pyrrolidina-2(1,3)-benzenacycloundecaphane-4-yl)amino)-3-methyl-1-oxobutan-2-yl)-N-methylpyrrolidine-3-carboxamide] |
|  | < 0.001 |  | CCn1c(-c2cccnc2[C@H](C)OC)c2c3cc(ccc31)-c1csc(n1)C[C@H](NC(=O)[C@H](C(C)C)N(C)C(=O)[C@H]1CCN(CC#CC(=O)N(C)C)C1)C(=O)N1CCC[C@H](N1)C(=O)OCC(C)(C)C2 (atropisomer, axis not shown) [Compound 113, (3S)-1-(4-(dimethylamino)-4-oxobut-2-yn-1-yl)-N-((2S)-1-(((6^3S,4S,Z)-1^1-ethyl-1^2-(2-((S)-1-methoxyethyl)pyridin-3-yl)-10,10-dimethyl-5,7-dioxo-6^1,6^2,6^3,6^4,6^5,6^6-hexahydro-1^1H-8-oxa-2(4,2)-thiazola-1(5,3)-indola-6(1,3)-pyridazinacycloundecaphane-4-yl)amino)-3-methyl-1-oxobutan-2-yl)-N-methylpyrrolidine-3-carboxamide] |
|  | < 0.001 |  | CCn1c(-c2cccnc2[C@H](C)OC)c2c3cc(ccc31)-c1cccc(c1)C[C@H](NC(=O)[C@H](C(C)C)N(C)C(=O)[C@H]1CCN(C/C=C/C(=O)N3CC(F)(F)C3)C1)C(=O)N1CCC[C@H](N1)C(=O)OCC(C)(C)C2 (atropisomer, axis not shown) [Compound 115, (3S)-1-((E)-4-(3,3-difluoroazetidin-1-yl)-4-oxobut-2-en-1-yl)-N-((2S)-1-(((6^3S,4S)-1^1-ethyl-1^2-(2-((S)-1-methoxyethyl)pyridin-3-yl)-10,10-dimethyl-5,7-dioxo-6^1,6^2,6^3,6^4,6^5,6^6-hexahydro-1^1H-8-oxa-1(5,3)-indola-6(1,3)-pyridazina-2(1,3)-benzenacycloundecaphane-4-yl)amino)-3-methyl-1-oxobutan-2-yl)-N-methylpyrrolidine-3-carboxamide] |
